{"source": "paper PMC5762315", "about": "“Inhibition of polo-like kinase 4 (PLK4): a new therapeutic option for rhabdoid tumors and pediatric medulloblastoma” (Oncotarget, 2017)", "experiment_in_all_cases": "LanthaScreen Eu Kinase Binding Assay, panel of 486 biochemical kinase assays", "key": {"[1]": {"target": "various kinases (Homo sapiens, UniProt P45985)", "details": "MAP2K4 (MEK4)"}, "[2]": {"target": "various kinases (Homo sapiens, UniProt O75716)", "sequence (O75716 whole entry)": "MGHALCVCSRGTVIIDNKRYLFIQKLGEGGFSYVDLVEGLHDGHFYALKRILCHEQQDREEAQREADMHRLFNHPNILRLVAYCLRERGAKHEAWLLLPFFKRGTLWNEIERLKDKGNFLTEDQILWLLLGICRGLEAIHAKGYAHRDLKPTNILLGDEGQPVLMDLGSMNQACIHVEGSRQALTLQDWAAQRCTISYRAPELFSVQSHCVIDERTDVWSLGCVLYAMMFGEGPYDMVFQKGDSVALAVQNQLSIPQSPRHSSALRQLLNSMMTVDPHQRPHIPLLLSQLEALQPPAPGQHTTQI", "details": "kinase STK16 (PKL12); LanthaScreen Binding"}, "[3]": {"target": "various kinases (Homo sapiens, UniProt P10721, V654A)", "details": "KIT V654A"}, "[4]": {"target": "various kinases (Homo sapiens, UniProt P10721, A829P)", "details": "KIT A829P"}, "[5]": {"target": "T1, various kinases (Homo sapiens, UniProt P33981)", "T1 sequence (P33981 1-857)": "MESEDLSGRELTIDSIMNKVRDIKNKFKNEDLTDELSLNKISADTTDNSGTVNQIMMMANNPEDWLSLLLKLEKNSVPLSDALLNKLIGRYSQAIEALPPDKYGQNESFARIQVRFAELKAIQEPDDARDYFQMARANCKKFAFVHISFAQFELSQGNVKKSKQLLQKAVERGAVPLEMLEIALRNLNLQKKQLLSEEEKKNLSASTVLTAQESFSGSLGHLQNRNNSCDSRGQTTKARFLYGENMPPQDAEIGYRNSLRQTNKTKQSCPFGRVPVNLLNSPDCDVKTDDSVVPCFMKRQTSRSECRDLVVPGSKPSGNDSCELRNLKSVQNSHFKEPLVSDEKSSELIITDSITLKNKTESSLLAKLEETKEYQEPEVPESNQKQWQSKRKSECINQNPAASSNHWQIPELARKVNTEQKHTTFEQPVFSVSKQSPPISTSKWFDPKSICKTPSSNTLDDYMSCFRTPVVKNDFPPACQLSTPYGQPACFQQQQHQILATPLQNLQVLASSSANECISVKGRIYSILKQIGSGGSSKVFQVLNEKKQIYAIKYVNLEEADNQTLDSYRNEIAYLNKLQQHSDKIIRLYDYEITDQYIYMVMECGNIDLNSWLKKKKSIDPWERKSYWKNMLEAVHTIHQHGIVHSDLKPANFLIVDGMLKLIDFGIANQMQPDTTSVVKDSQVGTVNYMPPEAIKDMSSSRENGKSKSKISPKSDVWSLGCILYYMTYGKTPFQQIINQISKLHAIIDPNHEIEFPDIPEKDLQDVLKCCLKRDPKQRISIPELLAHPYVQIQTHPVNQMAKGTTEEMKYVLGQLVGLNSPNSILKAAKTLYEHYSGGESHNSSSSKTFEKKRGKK", "details": "kinase TTK; LanthaScreen Binding"}, "[6]": {"target": "various kinases (Homo sapiens, UniProt Q8IWQ3)", "details": "BRSK2"}, "[7]": {"target": "various kinases (Homo sapiens, UniProt Q8N5S9)", "details": "CAMKK1 (CAMKKA)"}, "[8]": {"target": "various kinases (Homo sapiens, UniProt Q16832, N456S)", "sequence (Q16832 22-855 N456S)": "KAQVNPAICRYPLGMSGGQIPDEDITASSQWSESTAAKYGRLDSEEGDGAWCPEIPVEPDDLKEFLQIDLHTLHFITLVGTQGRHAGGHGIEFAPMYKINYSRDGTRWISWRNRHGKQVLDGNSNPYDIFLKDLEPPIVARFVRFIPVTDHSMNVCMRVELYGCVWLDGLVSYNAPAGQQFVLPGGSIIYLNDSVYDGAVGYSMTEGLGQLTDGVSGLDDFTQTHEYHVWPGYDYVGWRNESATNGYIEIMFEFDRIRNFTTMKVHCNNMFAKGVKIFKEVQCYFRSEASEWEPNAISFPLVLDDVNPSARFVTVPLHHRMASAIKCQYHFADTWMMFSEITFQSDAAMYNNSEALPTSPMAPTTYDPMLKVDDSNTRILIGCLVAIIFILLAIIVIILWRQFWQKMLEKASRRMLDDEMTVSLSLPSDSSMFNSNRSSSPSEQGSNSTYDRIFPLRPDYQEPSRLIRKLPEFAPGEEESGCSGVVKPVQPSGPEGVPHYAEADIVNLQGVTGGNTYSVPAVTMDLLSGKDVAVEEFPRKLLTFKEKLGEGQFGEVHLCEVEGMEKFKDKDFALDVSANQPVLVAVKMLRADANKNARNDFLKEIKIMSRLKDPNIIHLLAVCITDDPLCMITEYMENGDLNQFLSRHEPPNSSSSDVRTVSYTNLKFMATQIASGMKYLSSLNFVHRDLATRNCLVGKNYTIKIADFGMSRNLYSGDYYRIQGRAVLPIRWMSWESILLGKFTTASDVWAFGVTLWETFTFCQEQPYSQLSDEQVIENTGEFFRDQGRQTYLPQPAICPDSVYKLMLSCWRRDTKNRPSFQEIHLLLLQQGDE", "details": "DDR2 N456S"}, "[9]": {"target": "various kinases (Homo sapiens, UniProt Q9HBH9)", "sequence (Q9HBH9 whole entry)": "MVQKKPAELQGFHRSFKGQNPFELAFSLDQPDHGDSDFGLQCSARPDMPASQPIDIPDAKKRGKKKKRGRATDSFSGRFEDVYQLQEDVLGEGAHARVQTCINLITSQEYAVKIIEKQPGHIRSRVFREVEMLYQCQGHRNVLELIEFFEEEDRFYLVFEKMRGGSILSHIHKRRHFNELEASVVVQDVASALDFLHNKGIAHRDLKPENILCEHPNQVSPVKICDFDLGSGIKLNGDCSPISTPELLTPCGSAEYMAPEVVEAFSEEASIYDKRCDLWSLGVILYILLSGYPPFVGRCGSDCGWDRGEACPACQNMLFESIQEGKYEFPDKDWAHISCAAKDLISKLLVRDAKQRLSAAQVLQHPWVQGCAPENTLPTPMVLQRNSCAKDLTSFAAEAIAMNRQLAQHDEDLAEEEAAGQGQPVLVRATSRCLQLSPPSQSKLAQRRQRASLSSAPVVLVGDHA", "details": "MKNK2 (MNK2)"}, "[10]": {"target": "various kinases (Homo sapiens, UniProt Q09013)", "sequence (Q09013 whole entry)": "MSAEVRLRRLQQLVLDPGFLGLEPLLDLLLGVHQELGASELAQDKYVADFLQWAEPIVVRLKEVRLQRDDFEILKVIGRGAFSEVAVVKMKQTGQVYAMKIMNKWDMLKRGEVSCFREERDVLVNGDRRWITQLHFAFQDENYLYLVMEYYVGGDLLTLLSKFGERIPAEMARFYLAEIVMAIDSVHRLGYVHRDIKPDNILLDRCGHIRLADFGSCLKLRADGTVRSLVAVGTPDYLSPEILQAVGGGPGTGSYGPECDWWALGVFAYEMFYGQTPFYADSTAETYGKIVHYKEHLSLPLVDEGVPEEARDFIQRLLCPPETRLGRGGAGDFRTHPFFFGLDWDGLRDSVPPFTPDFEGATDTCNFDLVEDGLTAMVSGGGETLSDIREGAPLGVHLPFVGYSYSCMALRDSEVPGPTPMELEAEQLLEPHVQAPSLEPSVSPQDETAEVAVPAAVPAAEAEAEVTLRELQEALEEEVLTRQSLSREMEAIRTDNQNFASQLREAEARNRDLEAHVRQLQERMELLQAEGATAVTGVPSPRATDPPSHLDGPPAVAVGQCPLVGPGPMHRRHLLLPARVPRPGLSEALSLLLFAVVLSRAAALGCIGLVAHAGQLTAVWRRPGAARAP", "details": "DMPK"}, "[11]": {"target": "various kinases (Homo sapiens, UniProt P49336)", "details": "CDK8/cyclin C"}, "[12]": {"target": "various kinases (Homo sapiens, UniProt Q02750)", "details": "MAP2K1 (MEK1)"}, "[13]": {"target": "various kinases (Homo sapiens, UniProt P10721, T670I/V559D)", "details": "KIT V559D T670I"}, "[14]": {"target": "various kinases (Homo sapiens, UniProt Q9UPZ9)", "details": "ICK"}, "[15]": {"target": "various kinases (Homo sapiens, UniProt P22607, K650M)", "details": "FGFR3 K650M"}, "[16]": {"target": "various kinases (Homo sapiens, UniProt Q9Y572)", "sequence (Q9Y572 whole entry)": "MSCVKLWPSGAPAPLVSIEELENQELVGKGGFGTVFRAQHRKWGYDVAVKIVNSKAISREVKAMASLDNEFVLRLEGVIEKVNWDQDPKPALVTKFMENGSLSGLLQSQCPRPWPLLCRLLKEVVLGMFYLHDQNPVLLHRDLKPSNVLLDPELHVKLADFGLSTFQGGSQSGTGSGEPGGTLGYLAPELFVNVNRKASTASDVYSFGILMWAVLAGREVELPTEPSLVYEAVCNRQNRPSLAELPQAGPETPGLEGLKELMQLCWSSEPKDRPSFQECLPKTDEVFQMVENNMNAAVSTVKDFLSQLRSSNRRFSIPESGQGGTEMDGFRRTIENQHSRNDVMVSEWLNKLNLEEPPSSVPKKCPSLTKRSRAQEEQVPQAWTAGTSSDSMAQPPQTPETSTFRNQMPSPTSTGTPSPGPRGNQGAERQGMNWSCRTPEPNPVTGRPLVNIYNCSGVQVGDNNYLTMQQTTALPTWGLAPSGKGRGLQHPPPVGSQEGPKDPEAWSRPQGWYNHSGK", "details": "kinase RIPK3; LanthaScreen Binding"}, "[17]": {"target": "various kinases (Homo sapiens, UniProt P00519, Q252H)", "details": "ABL1 Q252H"}, "[18]": {"target": "various kinases (Homo sapiens, UniProt O00311)", "details": "CDC7/DBF4"}, "[19]": {"target": "various kinases (Homo sapiens, UniProt O00238)", "sequence (O00238 14-502)": "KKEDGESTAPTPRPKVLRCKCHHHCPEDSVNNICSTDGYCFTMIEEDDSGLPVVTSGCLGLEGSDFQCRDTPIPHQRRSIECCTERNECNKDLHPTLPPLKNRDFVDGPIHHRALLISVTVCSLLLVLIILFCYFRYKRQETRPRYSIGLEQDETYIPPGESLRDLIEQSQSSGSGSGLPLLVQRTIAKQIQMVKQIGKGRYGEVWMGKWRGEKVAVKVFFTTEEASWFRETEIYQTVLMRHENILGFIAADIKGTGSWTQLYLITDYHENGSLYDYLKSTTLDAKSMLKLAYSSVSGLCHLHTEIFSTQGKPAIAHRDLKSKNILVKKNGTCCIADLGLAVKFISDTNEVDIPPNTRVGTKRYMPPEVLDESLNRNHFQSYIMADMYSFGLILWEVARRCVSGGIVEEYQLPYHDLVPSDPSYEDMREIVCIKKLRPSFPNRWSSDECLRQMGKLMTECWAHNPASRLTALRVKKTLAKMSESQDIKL", "details": "BMPR1B (ALK6)"}, "[20]": {"target": "various kinases (Homo sapiens, UniProt Q07912)", "sequence (Q07912 whole entry)": "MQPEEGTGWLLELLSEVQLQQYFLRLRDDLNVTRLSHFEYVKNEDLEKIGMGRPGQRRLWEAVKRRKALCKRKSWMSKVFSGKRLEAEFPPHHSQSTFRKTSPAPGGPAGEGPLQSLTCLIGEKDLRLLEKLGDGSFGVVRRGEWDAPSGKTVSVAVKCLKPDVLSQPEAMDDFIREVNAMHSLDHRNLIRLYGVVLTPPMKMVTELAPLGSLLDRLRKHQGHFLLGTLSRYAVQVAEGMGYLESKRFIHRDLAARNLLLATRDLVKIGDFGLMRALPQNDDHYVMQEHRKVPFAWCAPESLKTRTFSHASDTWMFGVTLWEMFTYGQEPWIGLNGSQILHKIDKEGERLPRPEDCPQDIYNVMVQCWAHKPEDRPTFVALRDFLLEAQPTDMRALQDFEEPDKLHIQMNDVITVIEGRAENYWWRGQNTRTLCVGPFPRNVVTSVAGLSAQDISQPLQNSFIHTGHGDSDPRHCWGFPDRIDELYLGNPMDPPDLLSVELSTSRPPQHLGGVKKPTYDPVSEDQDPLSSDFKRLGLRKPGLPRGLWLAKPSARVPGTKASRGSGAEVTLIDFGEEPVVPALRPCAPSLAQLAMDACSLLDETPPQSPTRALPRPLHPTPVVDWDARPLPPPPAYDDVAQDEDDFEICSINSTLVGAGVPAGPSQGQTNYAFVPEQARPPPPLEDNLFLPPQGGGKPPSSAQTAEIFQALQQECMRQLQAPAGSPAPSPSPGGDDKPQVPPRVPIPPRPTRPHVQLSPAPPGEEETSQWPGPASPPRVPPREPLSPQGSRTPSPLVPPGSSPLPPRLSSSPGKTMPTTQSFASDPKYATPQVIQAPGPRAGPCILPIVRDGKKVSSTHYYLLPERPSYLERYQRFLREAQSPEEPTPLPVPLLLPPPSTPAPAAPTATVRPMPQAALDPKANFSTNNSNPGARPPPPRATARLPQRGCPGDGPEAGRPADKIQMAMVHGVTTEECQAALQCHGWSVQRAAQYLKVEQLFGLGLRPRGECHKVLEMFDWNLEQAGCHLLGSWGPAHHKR", "details": "kinase TNK2 (ACK); LanthaScreen Binding"}, "[21]": {"target": "various kinases (Homo sapiens, UniProt P27037)", "sequence (P27037 20-513)": "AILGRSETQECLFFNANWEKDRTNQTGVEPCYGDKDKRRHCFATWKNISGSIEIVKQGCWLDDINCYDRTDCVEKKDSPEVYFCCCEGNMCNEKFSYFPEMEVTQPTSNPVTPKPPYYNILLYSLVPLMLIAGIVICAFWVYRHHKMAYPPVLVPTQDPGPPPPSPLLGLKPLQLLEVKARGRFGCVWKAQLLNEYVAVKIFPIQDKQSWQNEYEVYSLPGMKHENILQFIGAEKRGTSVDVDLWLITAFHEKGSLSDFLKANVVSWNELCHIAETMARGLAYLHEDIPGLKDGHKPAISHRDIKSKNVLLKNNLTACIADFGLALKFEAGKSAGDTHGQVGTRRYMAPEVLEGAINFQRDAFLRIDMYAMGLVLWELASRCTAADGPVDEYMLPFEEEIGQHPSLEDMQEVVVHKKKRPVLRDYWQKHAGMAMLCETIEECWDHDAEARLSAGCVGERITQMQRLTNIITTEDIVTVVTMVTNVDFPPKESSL", "details": "ACVR2A"}}, "note": "“And” between values parts separate entries of the source, which are not always exact repeats. Equal values may be shown once.", "data": [{"smiles": "COc1ccc2c(c1)[C@]1(C[C@H]1c1ccc3c(/C=C/c4ccc(CN5C[C@@H](C)O[C@@H](C)C5)cc4)n[nH]c3c1)C(=O)N2", "note": "[CFI-400945]", "values": [{"measurement": "% Inhibition", "setting": "[1]", "value": "7% and 3%"}, {"measurement": "% Inhibition Average", "setting": "[2]", "value": 1, "unit": "%"}, {"measurement": "% Inhibition Duplicate #1", "setting": "[2]", "value": -1, "unit": "%"}, {"measurement": "% Inhibition Duplicate #2", "setting": "[2]", "value": 4, "unit": "%"}, {"measurement": "% Inhibition", "setting": "[3]", "value": 6, "unit": "%"}, {"measurement": "% Inhibition", "setting": "[4]", "value": "0% and 7%"}, {"measurement": "% Inhibition Average", "setting": "[5]", "value": 6, "unit": "%"}, {"measurement": "% Inhibition Duplicate #1", "setting": "[5]", "value": 4, "unit": "%"}, {"measurement": "% Inhibition Duplicate #2", "setting": "[5]", "value": 7, "unit": "%"}, {"measurement": "% Inhibition", "setting": "[6]", "value": "-4% and -7%"}, {"measurement": "% Inhibition", "setting": "[7]", "value": "-4% and -3%"}, {"measurement": "% Inhibition", "setting": "[8]", "value": "77% and 74%"}, {"measurement": "% Inhibition", "setting": "[9]", "value": "26% and 29%"}, {"measurement": "% Inhibition", "setting": "[10]", "value": "1% and -3%"}, {"measurement": "% Inhibition", "setting": "[11]", "value": "17% and 9%"}, {"measurement": "% Inhibition", "setting": "[12]", "value": "9% and 8%"}, {"measurement": "% Inhibition", "setting": "[13]", "value": 10, "unit": "%"}, {"measurement": "% Inhibition", "setting": "[14]", "value": "8% and 5%"}, {"measurement": "% Inhibition", "setting": "[15]", "value": "44% and 48%"}, {"measurement": "% Inhibition Average", "setting": "[16]", "value": 11, "unit": "%"}, {"measurement": "% Inhibition Duplicate #1", "setting": "[16]", "value": 11, "unit": "%"}, {"measurement": "% Inhibition Duplicate #2", "setting": "[16]", "value": 11, "unit": "%"}, {"measurement": "% Inhibition", "setting": "[17]", "value": 72, "unit": "%"}, {"measurement": "% Inhibition", "setting": "[18]", "value": "13% and 16%"}, {"measurement": "% Inhibition", "setting": "[19]", "value": "5% and 8%"}, {"measurement": "% Inhibition Average", "setting": "[20]", "value": 9, "unit": "%"}, {"measurement": "% Inhibition Duplicate #1", "setting": "[20]", "value": 11, "unit": "%"}, {"measurement": "% Inhibition Duplicate #2", "setting": "[20]", "value": 8, "unit": "%"}, {"measurement": "% Inhibition", "setting": "[21]", "value": "18% and 15%"}]}]}
